Values of other authors in patent US11154491B2, “Use of Undaria extract to reduce signs of skin aging” (Kimberly-Clark Worldwide, Inc., priority 2014, dated 2021).

Tested on: 3T3-L1 cells
Conditions: literature

Q: For Fucoidan, which adipogenesis is on record?
A: The adipogenesis was “inhibit adipogenesis”.
